From ChEMBL document CHEMBL1133327, “4-Thiazolidinones: novel inhibitors of the bacterial enzyme MurB” (Bioorg Med Chem Lett, 2000)

Target: not listed separately
Assay: Compound was tested for in vitro inhibitory activity against the bacterial enzyme UDP-N-acetylmuramate dehydrogenase; call rule not given here

| Structure (SMILES) | IC50 |
| --- | --- |
| CCCC[C@H](C(=O)O)N1C(=O)CSC1c1cccc(Oc2ccc(C(C)(C)C)cc2)c1 (stereo partly specified) | 7.7 µM |
| CCCC[C@H](C(=O)O)N1C(=O)C(CC(=O)NNc2ccccc2)SC1c1cccc(Oc2ccc(C(C)(C)C)cc2)c1 (stereo partly specified) | 7.7 µM |
| CCCC[C@@H](C(=O)O)N1C(=O)C(C)SC1c1cccc(Oc2ccc(C(C)(C)C)cc2)c1 (stereo partly specified) | 14 µM |
| CCCC[C@@H](C(=O)O)N1C(=O)CSC1c1cccc(Oc2ccc(C(C)(C)C)cc2)c1 (stereo partly specified) | 28.4 µM |
| CCCC[C@@H](C(=O)O)N1C(=O)C(CC(=O)NNc2ccccc2)SC1c1cccc(Oc2ccc(C(C)(C)C)cc2)c1 (stereo partly specified) | 11 µM |
| CCCC[C@H](C(=O)O)N1C(=O)C(C)SC1c1cccc(Oc2ccc(C(C)(C)C)cc2)c1 (single isomer, unassigned) | 10 µM |

Target: T1, UDP-N-acetylenolpyruvoylglucosamine reductase (Escherichia coli K-12, UniProt P08373)
T1 sequence (P08373 whole entry): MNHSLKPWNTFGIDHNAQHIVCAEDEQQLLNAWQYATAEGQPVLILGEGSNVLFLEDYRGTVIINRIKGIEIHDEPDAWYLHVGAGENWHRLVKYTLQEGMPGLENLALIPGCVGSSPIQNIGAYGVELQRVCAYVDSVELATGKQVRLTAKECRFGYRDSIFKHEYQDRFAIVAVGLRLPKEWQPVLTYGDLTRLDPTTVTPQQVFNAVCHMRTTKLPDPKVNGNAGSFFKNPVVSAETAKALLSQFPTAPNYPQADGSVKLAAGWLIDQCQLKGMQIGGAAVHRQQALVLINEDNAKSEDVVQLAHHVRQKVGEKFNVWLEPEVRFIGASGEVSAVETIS
Assay: Inhibition of bacterial enzyme UDP-N-acetylmuramate dehydrogenase

| Structure (SMILES) | IC50 |
| --- | --- |
| CC1SC(c2cccc(Oc3ccc(C(C)(C)C)cc3)c2)N([C@@H](Cc2ccccc2)C(=O)O)C1=O (stereo partly specified) | Not Active |
| CC1SC(c2cccc(Oc3ccc(C(C)(C)C)cc3)c2)N([C@@H](CC(=O)O)C(=O)O)C1=O (stereo partly specified) | Not Active |
| CC1SC(c2cccc(Oc3ccc(C(C)(C)C)cc3)c2)N([C@@H](CO)C(=O)O)C1=O (stereo partly specified) | Not Active |
| CC(C)(C)c1ccc(Oc2cccc(C3SCC(=O)N3[C@@H](CC(=O)O)C(=O)O)c2)cc1 (stereo partly specified) | Not Active |
| CC(C)(C)c1ccc(Oc2cccc(C3SCC(=O)N3[C@@H](CO)C(=O)O)c2)cc1 (stereo partly specified) | Not Active |
| CC(C)(C)c1ccc(Oc2cccc(C3SC(CC(=O)NNc4ccccc4)C(=O)N3CC(=O)O)c2)cc1 (stereo unspecified) | Not Active |
| CC1SC(c2cccc(Oc3ccc(C(C)(C)C)cc3)c2)N(CC(=O)O)C1=O (stereo unspecified) | Not Active |
| CC(C)(C)c1ccc(Oc2cccc(C3SCC(=O)N3[C@@H](CCCN)C(=O)O)c2)cc1 (stereo partly specified) | Not Active |
| CC(C)(C)c1ccc(Oc2cccc(C3SC(CC(=O)NNc4ccccc4)C(=O)N3[C@@H](CCCN)C(=O)O)c2)cc1 (stereo partly specified) | Not Active |
| CC(C)(C)c1ccc(Oc2cccc(C3SC(CC(=O)NNc4ccccc4)C(=O)N3[C@@H](CC(=O)O)C(=O)O)c2)cc1 (stereo partly specified) | Not Active |
| CC(C)(C)c1ccc(Oc2cccc(C3SCC(=O)N3CC(=O)O)c2)cc1 (stereo unspecified) | Not Active |
| CC(C)(C)c1ccc(Oc2cccc(C3SC(CC(=O)NNc4ccccc4)C(=O)N3[C@@H](CO)C(=O)O)c2)cc1 (stereo partly specified) | Not Active |
| CC(C)(C)c1ccc(Oc2cccc(C3SCC(=O)N3[C@@H](Cc3ccccc3)C(=O)O)c2)cc1 (stereo partly specified) | Not Active |
| CC1SC(c2cccc(Oc3ccc(C(C)(C)C)cc3)c2)N([C@@H](CCCN)C(=O)O)C1=O (stereo partly specified) | Not Active |
| CC(C)(C)c1ccc(Oc2cccc(C3SC(CC(=O)NNc4ccccc4)C(=O)N3[C@@H](Cc3ccccc3)C(=O)O)c2)cc1 (stereo partly specified) | Not Active |
